Assay results: ChEMBL document CHEMBL1149699, “Structure-activity relationships of 3,4-dihydro-1H-quinazolin-2-one derivatives as potential CDK5 inhibitors” (Bioorg Med Chem, 2007)

Tests used:
[1] = biological target: T1, Cyclin-dependent kinase 5/CDK5 activator 1 (Homo sapiens, UniProt Q00535); test: Inhibition of human His-tagged p25/CDK5; format: protein-complex assay
[2] = biological target: T1, Cyclin-dependent kinase 5/CDK5 activator 1; test: Inhibition of human CDK5/p25 by HTRF assay; format: protein-complex assay
[3] = Inhibition of human PKA
[4] = biological target: Mitogen-activated protein kinase 9 (Homo sapiens, UniProt P45984); test: Inhibition of human JNK2
Chain of Mitogen-activated protein kinase 9 (P45984 whole entry): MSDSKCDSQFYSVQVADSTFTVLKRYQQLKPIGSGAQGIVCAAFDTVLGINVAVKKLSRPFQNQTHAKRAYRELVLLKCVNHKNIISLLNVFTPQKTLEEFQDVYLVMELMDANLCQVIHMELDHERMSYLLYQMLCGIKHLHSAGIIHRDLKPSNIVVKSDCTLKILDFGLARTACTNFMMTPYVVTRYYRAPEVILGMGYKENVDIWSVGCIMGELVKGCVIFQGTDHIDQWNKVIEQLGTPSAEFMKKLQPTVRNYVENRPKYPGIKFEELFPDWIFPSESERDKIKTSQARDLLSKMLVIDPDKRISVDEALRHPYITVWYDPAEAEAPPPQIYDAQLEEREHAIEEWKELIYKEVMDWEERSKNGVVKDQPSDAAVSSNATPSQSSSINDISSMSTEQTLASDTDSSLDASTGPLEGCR

[5] = biological target: Mitogen-activated protein kinase 14 (Homo sapiens, UniProt Q16539); test: Inhibition of human p38 alpha
Chain of Mitogen-activated protein kinase 14 (Q16539 whole entry): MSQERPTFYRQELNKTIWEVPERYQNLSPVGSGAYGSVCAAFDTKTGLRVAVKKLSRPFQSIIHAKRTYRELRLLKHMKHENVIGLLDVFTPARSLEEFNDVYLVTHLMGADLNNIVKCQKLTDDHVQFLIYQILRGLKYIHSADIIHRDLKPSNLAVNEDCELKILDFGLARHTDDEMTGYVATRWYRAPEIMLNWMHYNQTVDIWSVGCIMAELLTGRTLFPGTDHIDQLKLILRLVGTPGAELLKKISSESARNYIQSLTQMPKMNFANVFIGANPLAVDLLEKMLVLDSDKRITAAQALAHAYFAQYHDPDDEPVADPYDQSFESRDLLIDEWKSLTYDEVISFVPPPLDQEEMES

[6] = biological target: Mitogen-activated protein kinase 3 (Homo sapiens, UniProt P27361); test: Inhibition of human Erk1
Chain of Mitogen-activated protein kinase 3 (P27361 whole entry): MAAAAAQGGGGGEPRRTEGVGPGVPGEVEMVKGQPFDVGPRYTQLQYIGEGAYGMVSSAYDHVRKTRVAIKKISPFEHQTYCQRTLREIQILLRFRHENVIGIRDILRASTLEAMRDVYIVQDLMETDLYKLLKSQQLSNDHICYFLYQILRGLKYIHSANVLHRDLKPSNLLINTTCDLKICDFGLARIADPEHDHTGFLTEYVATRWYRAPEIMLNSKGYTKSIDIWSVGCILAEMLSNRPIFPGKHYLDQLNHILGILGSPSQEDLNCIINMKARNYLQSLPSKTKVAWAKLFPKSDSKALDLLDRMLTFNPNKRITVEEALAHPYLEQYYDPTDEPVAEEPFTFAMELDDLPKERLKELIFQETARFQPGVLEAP

[7] = Inhibition of human His-tagged cyclin 2/CDK2 by HTRF assay

T1 sequence (Q00535 whole entry): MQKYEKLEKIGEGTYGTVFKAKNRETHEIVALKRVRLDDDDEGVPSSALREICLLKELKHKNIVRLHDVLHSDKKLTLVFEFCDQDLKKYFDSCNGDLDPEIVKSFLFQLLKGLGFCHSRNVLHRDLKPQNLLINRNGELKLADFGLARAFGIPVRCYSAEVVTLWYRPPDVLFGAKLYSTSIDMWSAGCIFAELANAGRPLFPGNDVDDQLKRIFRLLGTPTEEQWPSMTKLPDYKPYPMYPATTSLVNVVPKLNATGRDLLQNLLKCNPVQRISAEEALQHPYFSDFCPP
T1 sequence (Q15078 whole entry, further chain): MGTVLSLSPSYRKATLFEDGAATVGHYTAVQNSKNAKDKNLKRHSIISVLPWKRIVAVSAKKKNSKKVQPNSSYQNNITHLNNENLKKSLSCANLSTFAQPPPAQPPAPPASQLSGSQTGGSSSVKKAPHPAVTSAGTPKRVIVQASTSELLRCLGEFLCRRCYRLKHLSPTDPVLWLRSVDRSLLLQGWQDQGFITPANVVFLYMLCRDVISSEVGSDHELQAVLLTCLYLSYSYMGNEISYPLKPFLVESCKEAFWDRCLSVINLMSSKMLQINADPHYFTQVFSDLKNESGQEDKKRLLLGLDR

IC50 [2] [nM] | SMILES | further results
> 10000 | O=C1Nc2ccccc2CN1c1nc(-c2ccncc2)no1 | –
113 | O=C1Nc2cc(-c3ccccc3)ccc2CN1c1csc(-c2ccncc2)n1 | –
1260 | Cc1cccc2c1CN(c1csc(-c3ccncc3)n1)C(=O)N2 | –
72 | O=C1Nc2ccc(F)cc2CN1c1csc(-c2ccncc2)n1 | –
1160 | CN1CCN(c2ccc3c(c2)CN(c2csc(-c4ccncc4)n2)C(=O)N3)CC1 | –
165 | Cc1ccc2c(c1)CN(c1csc(-c3ccncc3)n1)C(=O)N2 | –
> 10000 | O=c1[nH]c2ccccc2c(=O)n1-c1csc(-c2ccncc2)n1 | –
79 | O=C1Nc2ccccc2CN1c1csc(-c2ccncc2)n1 | IC50 [3]: > 10000 nM; IC50 [4]: > 10000 nM; IC50 [5]: > 10000 nM; IC50 [6]: > 10000 nM; IC50 [1]: 79 nM; IC50 [7]: 142 nM
> 10000 | O=C1Nc2ccccc2CN1c1cccc(-c2ccncc2)c1 | –
616 | O=C1Nc2ccccc2CN1c1nc(-c2ccncc2)ns1 | –
332 | O=C1Nc2cccc(Cl)c2CN1c1csc(-c2ccncc2)n1 | –
77 | O=C1Nc2ccccc2CN1c1nc(-c2ccncc2)cs1 | IC50 [1]: 77 nM
829 | CN1CCN(c2cccc3c2CN(c2csc(-c4ccncc4)n2)C(=O)N3)CC1 | –
> 10000 | O=C1Nc2ccccc2CN1c1ccc(-c2ccncc2)s1 | –

The next lines start with the compound.

SMILES | IC50 [2] [nM] | further results
CN1CCN(c2cccc(NC(=O)Nc3csc(-c4ccncc4)n3)n2)CC1 | – | IC50 [1]: 15 nM
O=C1Nc2cccc(Br)c2CN1c1csc(-c2ccncc2)n1 | 228 | –
COc1cccc2c1CN(c1csc(-c3ccncc3)n1)C(=O)N2 | 362 | –
O=C1Nc2ccccc2CN1c1nc(-c2cccnc2)cs1 | – | IC50 [1]: 399 nM
O=C(Nc1ccccn1)Nc1csc(-c2ccncc2)n1 | 192 | –
CCc1cc(-c2nc(N3Cc4ccccc4NC3=O)cs2)ccn1 | – | IC50 [1]: 746 nM
O=C(Nc1ccccc1)Nc1csc(-c2ccncc2)n1 | 2990 | –
O=C1Nc2cc(Br)ccc2CN1c1csc(-c2ccncc2)n1 | 38 | –
O=c1[nH]c2ccccc2n1-c1csc(-c2ccncc2)n1 | 1160 | –
O=C1Nc2cc(F)ccc2CN1c1csc(-c2ccncc2)n1 | 16 | IC50 [3]: > 10000 nM; IC50 [4]: > 10000 nM; IC50 [5]: > 10000 nM; IC50 [6]: > 10000 nM; IC50 [1]: 16 nM; IC50 [7]: 52 nM
O=C1Nc2ccccc2CN1c1nc(-c2ccccn2)cs1 | – | IC50 [1]: 7360 nM
O=C1Nc2cccc(CN3CCOCC3)c2CN1c1csc(-c2ccncc2)n1 | 284 | –
O=C1Nc2cc(CN3CCOCC3)ccc2CN1c1csc(-c2ccncc2)n1 | 62 | IC50 [3]: > 10000 nM; IC50 [4]: > 10000 nM; IC50 [5]: > 10000 nM; IC50 [6]: > 10000 nM; IC50 [1]: 62 nM; IC50 [7]: 529 nM
O=C1Nc2cccc(F)c2CN1c1csc(-c2ccncc2)n1 | 240 | –
